Test system: test plant species
Assay: Post-emergent herbicidal activity test (greenhouse, foliar spray, visual growth reduction)
Type: in vivo
Settings: post-emergence, 336 h, ECHCG: barnyardgrass (Echinochloa crus-galli), 140 g ai/ha, 14 days after application, read-out: Visual Growth Reduction (%) 14 Days After Application, ECHCG
Procedure: Post-emergent Test: Seeds or nutlets of the desired test plant species were planted in Sun Gro Metro-Mix® 360 planting mixture, which typically has a pH of 6.0 to 6.8 and an organic matter content of about 30 percent, in plastic pots with a surface area of 64 square centimeters. In some aspects, to ensure good germination and healthy plants, a fungicide treatment and/or other chemical or physical treatment was applied. The plants were grown for 7-21 d in a greenhouse with an approximate 15 h photoperiod which was maintained at 23-29° C. during the day and 22-28° C. during the night. Nutrients and water were added on a regular basis and supplemental lighting was provided with overhead metal halide 1000-Watt lamps as necessary. Plants were used for testing when they reached the first or second true leaf stage. A weighed amount, determined by the highest rate to be tested, of each test compound was placed in a 25 mL glass vial and was dissolved in 4 mL of a 97:3 v/v mixture of acetone and DMSO to obtain concentrated stock solutions. […] The concentrated stock solutions obtained were diluted with 20 mL of an aqueous mixture containing acetone, water, isopropyl alcohol, DMSO, […] crop oil concentrate, and X-77 surfactant in a 48.5:39:10:1.5:1.0:0.02 v/v ratio to obtain spray solutions containing the application rate. Compound requirements are based upon a 12 mL application volume at a rate of 187 liters per hectare (L/ha). Formulated compounds were applied to the plant material with an overhead Mandel track sprayer equipped with […] nozzles calibrated to deliver 187 L/ha over an application area of 0.64 square meters at a spray height of 18 inches (43 cm) above the average plant canopy height. Control plants were sprayed in the same manner with the solvent blank. The treated plants and control plants were placed in a greenhouse as described above and watered by subirrigation to prevent wash-off of the test compounds. After 14 d, the condition of the test plants as compared with that of the nontreated and control plants was determined visually and scored on a scale of 0 to 100 percent where 0 corresponds to no injury and 100 corresponds to complete control. In the reporting of the results, Table A: Percent Growth Reduction Conversion Table was used.

| SMILES | pest or weed control at 140 g/ha |
| --- | --- |
| COC(=O)c1nc(-c2ccc(C(F)(F)F)c(N)c2Cl)ccc1Cl [F212, Methyl 6-(3-amino-2-chloro-4-(trifluoromethyl)phenyl)-3-chloropicolinate] | 75 to 84% |
| COC(=O)c1nc(-c2ccc(Cl)c(C)c2F)ccc1Cl [F272, Methyl 3-chloro-6-(4-chloro-2-fluoro-3-methylphenyl) picolinate] | 0 to 29% |

Same assay, conditions: post-emergence, 336 h, IPOHE: ivy-leaf morning glory (Ipomoea hederacea), 140 g ai/ha, 14 days after application, read-out: Visual Growth Reduction (%) 14 Days After Application, IPOHE

| SMILES | pest or weed control at 140 g/ha |
| --- | --- |
| COC(=O)c1nc(-c2ccc(C(F)(F)F)c(N)c2Cl)ccc1Cl [F212, Methyl 6-(3-amino-2-chloro-4-(trifluoromethyl)phenyl)-3-chloropicolinate] | 95 to 100% |
| COC(=O)c1nc(-c2ccc(Cl)c(C)c2F)ccc1Cl [F272, Methyl 3-chloro-6-(4-chloro-2-fluoro-3-methylphenyl) picolinate] | 0 to 29% |

Same assay, conditions: post-emergence, 336 h, KCHSC: kochia (Bassia scoparia), 140 g ai/ha, 14 days after application, read-out: Visual Growth Reduction (%) 14 Days After Application, KCHSC

| SMILES | pest or weed control at 140 g/ha |
| --- | --- |
| COC(=O)c1nc(-c2ccc(C(F)(F)F)c(N)c2Cl)ccc1Cl [F212, Methyl 6-(3-amino-2-chloro-4-(trifluoromethyl)phenyl)-3-chloropicolinate] | 60 to 74% |
| COC(=O)c1nc(-c2ccc(Cl)c(C)c2F)ccc1Cl [F272, Methyl 3-chloro-6-(4-chloro-2-fluoro-3-methylphenyl) picolinate] | 0 to 29% |

Same assay, conditions: post-emergence, 336 h, ORYSA: rice (Oryza sativa), 140 g ai/ha, 14 days after application, read-out: Visual Growth Reduction (%) 14 Days After Application, ORYSA

| SMILES | pest or weed control at 140 g/ha |
| --- | --- |
| COC(=O)c1nc(-c2ccc(C(F)(F)F)c(N)c2Cl)ccc1Cl [F212, Methyl 6-(3-amino-2-chloro-4-(trifluoromethyl)phenyl)-3-chloropicolinate] | 0 to 29% |
| COC(=O)c1nc(-c2ccc(Cl)c(C)c2F)ccc1Cl [F272, Methyl 3-chloro-6-(4-chloro-2-fluoro-3-methylphenyl) picolinate] | 0 to 29% |

Same assay, conditions: post-emergence, 336 h, SETFA: giant foxtail (Setaria faberi), 140 g ai/ha, 14 days after application, read-out: Visual Growth Reduction (%) 14 Days After Application, SETFA

| SMILES | pest or weed control at 140 g/ha |
| --- | --- |
| COC(=O)c1nc(-c2ccc(C(F)(F)F)c(N)c2Cl)ccc1Cl [F212, Methyl 6-(3-amino-2-chloro-4-(trifluoromethyl)phenyl)-3-chloropicolinate] | 60 to 74% |
| COC(=O)c1nc(-c2ccc(Cl)c(C)c2F)ccc1Cl [F272, Methyl 3-chloro-6-(4-chloro-2-fluoro-3-methylphenyl) picolinate] | 0 to 29% |

Same assay, conditions: post-emergence, 336 h, SORVU: grain sorghum (Sorghum vulgare), 140 g ai/ha, 14 days after application, read-out: Visual Growth Reduction (%) 14 Days After Application, SORVU

| SMILES | pest or weed control at 140 g/ha |
| --- | --- |
| COC(=O)c1nc(-c2ccc(C(F)(F)F)c(N)c2Cl)ccc1Cl [F212, Methyl 6-(3-amino-2-chloro-4-(trifluoromethyl)phenyl)-3-chloropicolinate] | 60 to 74% |
| COC(=O)c1nc(-c2ccc(Cl)c(C)c2F)ccc1Cl [F272, Methyl 3-chloro-6-(4-chloro-2-fluoro-3-methylphenyl) picolinate] | 0 to 29% |

Same assay, conditions: post-emergence, 336 h, STEME: common chickweed (Stellaria media), 140 g ai/ha, 14 days after application, read-out: Visual Growth Reduction (%) 14 Days After Application, STEME

| SMILES | pest or weed control at 140 g/ha |
| --- | --- |
| COC(=O)c1nc(-c2ccc(C(F)(F)F)c(N)c2Cl)ccc1Cl [F212, Methyl 6-(3-amino-2-chloro-4-(trifluoromethyl)phenyl)-3-chloropicolinate] | 0 to 29% |
| COC(=O)c1nc(-c2ccc(Cl)c(C)c2F)ccc1Cl [F272, Methyl 3-chloro-6-(4-chloro-2-fluoro-3-methylphenyl) picolinate] | 0 to 29% |

Same assay, conditions: post-emergence, 336 h, TRZAS: wheat, spring (Triticum aestivum), 140 g ai/ha, 14 days after application, read-out: Visual Growth Reduction (%) 14 Days After Application, TRZAS

| SMILES | pest or weed control at 140 g/ha |
| --- | --- |
| COC(=O)c1nc(-c2ccc(C(F)(F)F)c(N)c2Cl)ccc1Cl [F212, Methyl 6-(3-amino-2-chloro-4-(trifluoromethyl)phenyl)-3-chloropicolinate] | 0 to 29% |
| COC(=O)c1nc(-c2ccc(Cl)c(C)c2F)ccc1Cl [F272, Methyl 3-chloro-6-(4-chloro-2-fluoro-3-methylphenyl) picolinate] | 0 to 29% |

Same assay, conditions: post-emergence, 336 h, blackgrass (Alopecurus myosuroides), 14 Days After Application, 140 g ai/ha, read-out: Visual Growth Reduction (%) ALOMY

| SMILES | pest or weed control at 140 g/ha |
| --- | --- |
| COC(=O)c1nc(-c2ccc(C(F)(F)F)c(N)c2Cl)ccc1Cl [F212, Methyl 6-(3-amino-2-chloro-4-(trifluoromethyl)phenyl)-3-chloropicolinate] | 0 to 29% |
| COC(=O)c1nc(-c2ccc(Cl)c(C)c2F)ccc1Cl [F272, Methyl 3-chloro-6-(4-chloro-2-fluoro-3-methylphenyl) picolinate] | 0 to 29% |

Same assay, conditions: post-emergence, 336 h, canada thistle (Cirsium arvense), 14 Days After Application, 140 g ai/ha, read-out: Visual Growth Reduction (%) CIRAR

| SMILES | pest or weed control at 140 g/ha |
| --- | --- |
| COC(=O)c1nc(-c2ccc(C(F)(F)F)c(N)c2Cl)ccc1Cl [F212, Methyl 6-(3-amino-2-chloro-4-(trifluoromethyl)phenyl)-3-chloropicolinate] | 85 to 94% |
| COC(=O)c1nc(-c2ccc(Cl)c(C)c2F)ccc1Cl [F272, Methyl 3-chloro-6-(4-chloro-2-fluoro-3-methylphenyl) picolinate] | 0 to 29% |

Same assay, conditions: post-emergence, 336 h, crabgrass (Digitaria sanguinalis), 14 Days After Application, 140 g ai/ha, read-out: Visual Growth Reduction (%) DIGSA

| SMILES | pest or weed control at 140 g/ha |
| --- | --- |
| COC(=O)c1nc(-c2ccc(C(F)(F)F)c(N)c2Cl)ccc1Cl [F212, Methyl 6-(3-amino-2-chloro-4-(trifluoromethyl)phenyl)-3-chloropicolinate] | 30 to 44% |
| COC(=O)c1nc(-c2ccc(Cl)c(C)c2F)ccc1Cl [F272, Methyl 3-chloro-6-(4-chloro-2-fluoro-3-methylphenyl) picolinate] | 0 to 29% |

Same assay, conditions: post-emergence, 336 h, lambsquarters (Chenopodium album), 14 Days After Application, 140 g ai/ha, read-out: Visual Growth Reduction (%) CHEAL

| SMILES | pest or weed control at 140 g/ha |
| --- | --- |
| COC(=O)c1nc(-c2ccc(C(F)(F)F)c(N)c2Cl)ccc1Cl [F212, Methyl 6-(3-amino-2-chloro-4-(trifluoromethyl)phenyl)-3-chloropicolinate] | 95 to 100% |
| COC(=O)c1nc(-c2ccc(Cl)c(C)c2F)ccc1Cl [F272, Methyl 3-chloro-6-(4-chloro-2-fluoro-3-methylphenyl) picolinate] | 0 to 29% |

Same assay, conditions: post-emergence, 336 h, redroot pigweed (Amaranthus retroflexus), 14 Days After Application, 140 g ai/ha, read-out: Visual Growth Reduction (%) AMARE

| SMILES | pest or weed control at 140 g/ha |
| --- | --- |
| COC(=O)c1nc(-c2ccc(C(F)(F)F)c(N)c2Cl)ccc1Cl [F212, Methyl 6-(3-amino-2-chloro-4-(trifluoromethyl)phenyl)-3-chloropicolinate] | 60 to 74% |
| COC(=O)c1nc(-c2ccc(Cl)c(C)c2F)ccc1Cl [F272, Methyl 3-chloro-6-(4-chloro-2-fluoro-3-methylphenyl) picolinate] | 0 to 29% |

Same assay, conditions: post-emergence, 336 h, wild oat (Avena fatua), 14 Days After Application, 140 g ai/ha, read-out: Visual Growth Reduction (%) AVEFA

| SMILES | pest or weed control at 140 g/ha |
| --- | --- |
| COC(=O)c1nc(-c2ccc(C(F)(F)F)c(N)c2Cl)ccc1Cl [F212, Methyl 6-(3-amino-2-chloro-4-(trifluoromethyl)phenyl)-3-chloropicolinate] | 0 to 29% |
| COC(=O)c1nc(-c2ccc(Cl)c(C)c2F)ccc1Cl [F272, Methyl 3-chloro-6-(4-chloro-2-fluoro-3-methylphenyl) picolinate] | 0 to 29% |

Same assay, conditions: post-emergence, 336 h, yellow nutsedge (Cyperus esculentus), 14 Days After Application, 140 g ai/ha, read-out: Visual Growth Reduction (%) CYPES

| SMILES | pest or weed control at 140 g/ha |
| --- | --- |
| COC(=O)c1nc(-c2ccc(C(F)(F)F)c(N)c2Cl)ccc1Cl [F212, Methyl 6-(3-amino-2-chloro-4-(trifluoromethyl)phenyl)-3-chloropicolinate] | 0 to 29% |
| COC(=O)c1nc(-c2ccc(Cl)c(C)c2F)ccc1Cl [F272, Methyl 3-chloro-6-(4-chloro-2-fluoro-3-methylphenyl) picolinate] | 0 to 29% |

Source: patent US20230017045A1, “PYRIDINE AND PYRIMIDINE CARBOXYLATE HERBICIDES AND METHODS OF USE THEREOF” (Dow AgroSciences LLC, priority 2017, published 2023)
